Reference: the supplement of paper PMC10307832

Columns and labels:
Test in all cases: relative viability (nuclei count vs DMSO), 5 days (fraction); higher = more cells survive
Dabrafenib + Decitabine = compound: CC(C)(C)c1nc(-c2cccc(NS(=O)(=O)c3c(F)cccc3F)c2F)c(-c2ccnc(N)n2)s1 [Dabrafenib] + Nc1ncn([C@H]2C[C@H](O)[C@@H](CO)O2)c(=O)n1 [Decitabine] (partner 2 µM)
How it was run: (§1)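 Lung cancer cell lines were pin-tool dosed in 1536-well plates on the day after seeding, with either a lone drug or a fixed anchor-drug dose plus five library-drug doses (not always all listed) in √10 steps. Nuclei were counted on 4× images after 5 days. Relative viability is the ratio of treated-well to vehicle-well nuclei counts, with each value a median of duplicate plates.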

VX-702 + Vorinostat = compound: NC(=O)c1ccc(N(C(N)=O)c2c(F)cccc2F)nc1-c1ccc(F)cc1F [VX-702] + O=C(CCCCCCC(=O)Nc1ccccc1)NO [Vorinostat] (partner 1 µM)
How it was run: as §1

Dabrafenib + Crizotinib = compound: CC(C)(C)c1nc(-c2cccc(NS(=O)(=O)c3c(F)cccc3F)c2F)c(-c2ccnc(N)n2)s1 [Dabrafenib] + C[C@@H](Oc1cc(-c2cnn(C3CCNCC3)c2)cnc1N)c1c(Cl)ccc(F)c1Cl [Crizotinib] (partner 1 µM)
How it was run: as §1

VX-702 + Tozasertib = compound: NC(=O)c1ccc(N(C(N)=O)c2c(F)cccc2F)nc1-c1ccc(F)cc1F [VX-702] + Cc1cc(Nc2cc(N3CCN(C)CC3)nc(Sc3ccc(NC(=O)C4CC4)cc3)n2)n[nH]1 [Tozasertib] (partner 0.1 µM)
How it was run: as §1

Cell Line	relative viability (Dabrafenib + Decitabine; first compound 0.003 µM)	relative viability (Dabrafenib + Decitabine; first compound 0.009487 µM)	relative viability (Dabrafenib + Decitabine; first compound 0.03 µM)	relative viability (Dabrafenib + Decitabine; first compound 0.09487 µM)	relative viability (Dabrafenib + Decitabine; first compound 0.3 µM)	relative viability (VX-702 + Vorinostat; first compound 0.02 µM)	relative viability (VX-702 + Vorinostat; first compound 0.2 µM)	relative viability (VX-702 + Vorinostat; first compound 0.6325 µM)	relative viability (VX-702 + Vorinostat; first compound 2 µM)	relative viability (Dabrafenib + Crizotinib; first compound 0.009487 µM)	relative viability (Dabrafenib + Crizotinib; first compound 0.03 µM)	relative viability (Dabrafenib + Crizotinib; first compound 0.09487 µM)	relative viability (Dabrafenib + Crizotinib; first compound 0.3 µM)	relative viability (VX-702 + Tozasertib; first compound 0.02 µM)	relative viability (VX-702 + Tozasertib; first compound 0.2 µM)	relative viability (VX-702 + Tozasertib; first compound 0.6325 µM)	relative viability (VX-702 + Tozasertib; first compound 2 µM)	relative viability (Dabrafenib + Crizotinib; first compound 0.003 µM)
HOP-62	0.216	0.183	0.221	0.188	0.217	0.869	0.697	0.744	0.817	0.807	1.05	0.913	0.805	0.474	0.37	0.41	0.373	–
IA-LM	–	–	–	–	–	0.937	0.936	0.853	0.878	0.756	0.702	0.628	0.46	–	–	–	–	1.01
LC-2-ad	0.749	0.753	0.776	0.771	0.689	0.693	0.678	0.773	0.803	0.398	0.389	0.426	0.447	0.375	0.4	0.465	0.497	0.42
LCLC-97TM1	–	0.19	0.184	0.197	0.194	0.732	0.787	0.782	0.878	0.325	0.406	–	0.287	0.175	0.183	0.301	0.252	–
LCLC-103H	0.724	0.776	0.696	0.658	0.745	0.813	0.799	0.835	0.839	1.13	0.935	1.17	1.06	0.405	0.355	0.456	0.541	1
LK-2	0.225	0.287	–	0.326	0.22	0.258	0.275	0.283	0.385	0.223	–	0.254	0.197	0.153	0.173	0.157	0.168	0.211
LOU-NH91	–	0.868	0.845	0.838	0.861	0.957	0.845	0.895	0.857	0.759	0.717	0.672	0.757	0.75	0.657	0.677	0.628	–
LU99A	0.965	0.954	0.708	0.85	0.907	0.412	0.452	0.49	0.485	0.525	0.466	0.562	0.484	0.315	0.25	0.257	0.263	0.585
LXF-289	0.353	0.353	0.372	0.397	0.351	0.816	0.765	0.811	0.786	0.833	0.892	0.804	0.883	0.208	0.188	0.214	0.175	0.802
NCI-H23	–	0.343	0.352	0.333	0.32	0.491	0.566	0.575	0.669	0.603	0.541	0.421	0.495	0.446	0.334	0.37	0.486	–
